{"source": "patent US9078851B2", "about": "“Composition for preventing or treating a spinal cord injury” (UNIVERSITY-INDUSTRY COOPERATION GROUP OF KYUNG HEE, priority 2009, dated 2015)", "assay_type_in_all_cases": "in vivo, rat", "key": {"[1]": {"tested_on": "M2 (ED1 positive, CD206 positive) phenotype macrophages", "experiment": "MACS assay of M1/M2 phenotype macrophages in spinal cord injury model", "conditions": "tail vein injection, five days after spinal cord injury", "protocol": "For the present experiment, male white mice (Sprague-Dawley 240-250 g, 7 weeks, 10 mice) were under general anesthetics by an intraperitoneal injection of Ketamin (80 mg/kg, Yuhan Corporation) and Rompun (7.4 mg/kg, Bayer Korea Corporation). Laminectomy was performed at spine T9-10 level to expose a spinal cord keeping intact dura. And then, rat was put on Spinal cord dropping device (NYU); spine processes at T8 and T11 sites were fixed by using a clamp, respectively; then, a rod (diameter 2 mm, weight 10 g) was dropped from 25 mm height vertical to dorsal part of spinal cord followed by suturing injury site muscle and skin. […]\nMicroglia and macrophage have an inflammatory macrophage phenotype (M1) and selectively activated macrophage phenotype (M2). […] MACS (Miltenyi Biotec, Bergisch Gladbach) assay was performed in order to determine a quantitative amount of M1 (ED1 positive, CD206 negative) and M2 (ED1 positive, CD206 positive) phenotype macrophages after Substance P-injection in a spinal cord injury model.\nAt immediately, 1 d, 2d, Substance P or saline (the same volume without Substance P) was injected to a tail vein after a spinal cord injury, using the same method as (1) of Example 1. […] Magnetically labeled cells were collected by washing the column and then counted. […]"}, "[2]": {"tested_on": "apoptosis of nerve cells and oligodendrocytes", "experiment": "TUNEL staining of apoptosis at spinal cord injury site", "conditions": "tail vein injection", "protocol": "(§1) For the present experiment, male white mice (Sprague-Dawley 240-250 g, 7 weeks, 10 mice) were under general anesthetics by an intraperitoneal injection of Ketamin (80 mg/kg, Yuhan Corporation) and Rompun (7.4 mg/kg, Bayer Korea Corporation). Laminectomy was performed at spine T9-10 level to expose a spinal cord keeping intact dura. And then, rat was put on Spinal cord dropping device (NYU); spine processes at T8 and T11 sites were fixed by using a clamp, respectively; then, a rod (diameter 2 mm, weight 10 g) was dropped from 25 mm height vertical to dorsal part of spinal cord followed by suturing injury site muscle and skin. The rat of Sham-operated control group was performed only laminectomy at same area without damaging spinal cord injury (marked by ‘sham” in figures; hereinafter, the same as above).\nSubstance P (marked by ‘SP’ in figures; hereinafter, the same as above) dissolved in saline of 5 nmol/kg concentration was injected through tail vein at immediately, 24 hours, and 48 hours after a spinal cord injury for experimental groups. At sham control group, same volume of saline (marked by ‘vehicle’ in figures; hereinafter, the same as above) without Substance P was injected at same time points. Operation were performed on an electric heating pad of 37° C., and then rat were transferred to cage after awake from the anesthetic. • (2) Preparation of Tissue […]"}, "[3]": {"tested_on": "spinal cord injury site tissue", "experiment": "Immunofluorescence staining of CSPG, CD206, GFAP, NF200 after spinal cord injury", "conditions": "tail vein injection", "protocol": "as §1\nSubstance P (marked by ‘SP’ in figures; hereinafter, the same as above) dissolved in saline of 5 nmol/kg concentration was injected through tail vein at immediately, 24 hours, and 48 hours after a spinal cord injury for experimental groups. At sham control group, same volume of saline (marked by ‘vehicle’ in figures; hereinafter, the same as above) without Substance P was injected at same time points. Operation were performed on an electric heating pad of 37° C., and then rat were transferred to cage after awake from the anesthetic. • (2) Preparation of Tissue\nThen, perfusion was performed by opening the of heart and pumping 200 ml of a physiological saline and 4% paraformaldehyde (Sigma) through right atrium of heart. Then, a segment of spinal cord with injury site was removed and put in 4% paraformaldehyde at 4° C. for 6 hours. Subsequently, spinal cords were washed with saline, and placed in 30% sucrose (Sigma) solution at 4° C. overnight. Next day, spinal cords were cut in a length of 1.5 cm in which the injured site is localized in epicenter followed by embedding in OCT compound (optimal cutting temperature compound, Sakura). The fixed tissues were cut in a thickness of 10 μm (Longitudinal section) or 20 μm (cross section) with Cryostat (Leica) and attached to slide. Finally, slides were stored at −80° C. • (3) Immunofluorescence Staining\nThe selected sections for immunofluorescence staining were washed with saline for three times, and blocked with 10% horse serum (Jackson ImmunoResearch) for 1 hour at a room temperature. ED1 antibody (1:200, Milipore), a marker for activated microglia/macrophage, was treated and placed at 4° C. overnight. Next day, slides were washed with saline, and treated with a secondary antibody conjugated with Alexa Fluor 488 (1:400, Invitrogen) or cyanine 3 (1:500, Jackson ImmunoResearch) for 1 hour at room temperature. […]"}, "[4]": {"conditions": "two weeks after spinal cord injury"}}}
{"substance": "Substance P", "values": [{"measurement": "CD-206 positive percentage as compared with the control", "setting": "[1]", "value": "about 6.5 times"}, {"measurement": "activated microglia/macrophages CD-206 positive", "setting": "[1]", "value": 58.7, "unit": "%"}, {"measurement": "apoptosis of oligodendrocytes", "setting": "[2]; five days after damaging", "value": "significantly decreased"}, {"measurement": "apoptosis of nerve cells", "setting": "[2]; one day after damaging", "value": "decreased"}, {"measurement": "GFAP-positive cells distribution", "setting": "[3]; after spinal cord injury", "value": "excluded from CD206-positive spinal cord injury site"}, {"measurement": "CD206 and ED1 double-positive cells", "setting": "[3]; [4]", "value": "gathered around an injury site"}, {"measurement": "CSPG-positive signal around an injury site", "setting": "[3]; [4]", "value": "significantly decreased"}, {"measurement": "neurofilament protein", "setting": "[3]; vs control, exposed to CD206-positive cell field", "value": "well preserved"}]}
